The source of these data is patent publication US7994163B2, “6-substituted-2,3,4,5-tetrahydro-1H-benzo[d]azepines as 5-HT2C receptor agonists” (Eli Lilly and Company, priority 2005, dated 2011).

Structures are written as SMILES. Counter-ions that a name gives are not always drawn.

Series [1] concerns Wistar rats. To be noted: general statement on standards; cited from earlier work.
Series [2] deals with male NIH Swiss mice. The experiment in a line: Marble burying assay (with rotorod). The note with it: with rotorod performance. The format is in vivo. As to the method: House experimentally-naïve male, NIH Swiss mice (Harlan Sprague-Dawley, Indianapolis, Ind.) weighing between 28-35 g in groups of 12 for at least three days prior to testing in a vivarium with 12 h light and dark cycles. Conduct experiments during the light cycle in a dimly lit experimental testing room. Dose mice with vehicle or test compound and, after a specified pretreatment interval (generally 30 min.), place each mouse individually on a rotorod (Ugo Basile 7650) operating at a speed of 6 revolutions/min. and observe for falling. After 2 min. on the rotorod, place the mice individually in a 17×28×12 cm high plastic tub with 5 mm sawdust shavings on the floor that are covered with 20 blue marbles (1.5 cm diameter) placed in the center. After 30 min., count the number of marbles buried (⅔ covered with sawdust). Assess the test compound's effect on marble burying with Dunnett's test and the effect on rotorod performance by Fisher's exact test.
Clinically effective standard compounds suppress marble burying at doses that are devoid of motor-impairing effects as measured on the rotorod. The in vivo efficacy of 5HT2C compounds at the 5HT2C receptor is confirmed by the prevention of effects of the 5HT2C agonists on marble burying by co-administration of the 5HT2C receptor antagonist, 6-chloro-5-methyl-N-{2-[(2-methylpyridin-3-yl-oxy)pyridin-5-yl]aminocarbonyl}-2,3-dihydroindole.

Series [3] deals with Wistar rats. The experiment in a line: Schedule-induced polydipsia. The note with it: rat, in vivo. As to the method:
Maintain Wistar rats on a food restricted diet (to maintain 85% free feeding weight), but with free access to water. Train the rats in a behavioral testing chamber to press a lever to receive a food pellet under a fixed interval schedule, such that the rats are rewarded with a 45 mg food pellet the first time they press a lever after a 120 second interval has elapsed. The fixed interval is then reset to 120 seconds and the process repeated. Thus, during a 90 min. test session, the rats can earn a maximum of 45 pellets. The behavioral chamber is also equipped with a water bottle that is weighed before and after the session to determine the amount of water consumed.
Administer test compounds on Tuesdays and Fridays. Determine control day performances on Thursdays. Administer compounds either orally at 60 min. before the beginning of a test session, or subcutaneously at 20 min. before the beginning of a test session. Compare the rates of lever pressing and water consumption for each animal's performance during sessions after test compound treatment with that animal's performance during control sessions, expressed as a percent of the control rate. Average the individual percent of control rates for each dose and calculate the standard error of the mean. […]

Series [4] has as its system male NIH Swiss mice. The experiment in a line: Nestlet shredding. The format is in vivo. To be noted: with motor effects (rotorod test). The source says: Mice naturally will construct nests of material available in their living environment. Since this behavior is obsessive in nature, it has been used to model OCD (Xia Li, Denise Morrow and Jeffrey M. Witkin, “Decreases in nestlet shredding of mice by serotonin uptake inhibitors: comparison with marble burying”, Psychopharmacology, submitted Jul. 14, 2003). House experimentally-naïve male, NIH Swiss mice (Harlan Sprague-Dawley, Indianapolis, Ind.) weighing between 28-35 g in groups of 12 for at least three days prior to testing in a vivarium with a 12 h light/dark cycle. Conduct experiments during the light cycle in an experimental room with normal overhead fluorescent lighting. Dose mice with vehicle or test compound and after a specified pretreatment interval (generally 30 min.), place the mice individually in a 17×28×12 cm high plastic tub with about 5 mm sawdust shavings on the floor along with a pre-weighed multi-ply gauze pad (51 mm square). After 30 min., weigh the remainder of the gauze pad not removed by the mouse. Determine the weight of the gauze used for nestlet construction by subtraction. Compare the results for test compound treated mice to the results for vehicle control treated mice with Dunnett's test.
Clinically effective OCD treatment standard compounds suppress nestlet shredding at doses that are devoid of motor-impairing effects as measured by the rotorod test. […]

`Clc1ccc2c(c1CSc1ncc[nH]1)CCNCC2` (as salt: phosphate) (hydrate or solvate) had a melting point of 243 to 245 °C.
With `CN(C)CCCN1c2ccccc2CCc2ccc(Cl)cc21` [chlomipramine], in series [1], the “schedule-induced polydipsia, clinically effective OCD treatment standard compounds” value is recorded as “suppress schedule-induced polydipsia without producing notable changes in motor patterns, food intake, or behavior the following day”.
On to `CN(C)CCCN1c2ccccc2Sc2ccc(Cl)cc21` [chlorpromazine], for which the marble burying behavior entry in series [2] is recorded as “decrease marble burying only at doses that also disrupt rotorod performance”.
For `C[C@H](N)Cc1ccccc1` [d-amphetamine], in series [3], the “Effect of 5-HT2C antagonist co-administration on suppression of polydipsia” value is listed as “not prevented by the 5HT2C receptor antagonist” and the “schedule-induced polydipsia (excessive drinking)” value is reported as “decreases excessive drinking only at behaviorally stimulating doses”. For the same compound, the nestlet shredding result in series [4] is “decreases nestlet shredding only at doses that produce motoric side effects”.
Turning to `CNCCC(Oc1ccc(C(F)(F)F)cc1)c1ccccc1` (stereo not shown) [fluoxetine], in series [1], the “schedule-induced polydipsia, clinically effective OCD treatment standard compounds” value is given as “suppress schedule-induced polydipsia without producing notable changes in motor patterns, food intake, or behavior the following day”.
